Measured values taken from ChEMBL document CHEMBL4038351, “Structure-Guided Development of Covalent and Mutant-Selective Pyrazolopyrimidines to Target T790M Drug Resistance in Epidermal Growth Factor Receptor” (J Med Chem, 2017).

Experiments:
A549 [1] = test: Antiproliferative activity against human A549 cells harboring KRAS-G12S mutant at 30 uM incubated for 96 hrs measured on day 5 by CellTiterGlo assay; format: cell-based; conditions: a549, 96 h
[2] = molecular target: Epidermal growth factor receptor (Homo sapiens, UniProt P00533, L858R/T790M)
NCI-H1975 = test: cells; format: functional, cell-based; conditions: Homo sapiens
[3] = molecular target: Epidermal growth factor receptor (Homo sapiens, UniProt P00533)
A-431 = test: cells; format: ADME, cell-based; conditions: Homo sapiens;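 also: antiproliferative effect on cells bearing wild-type EGFR, 96 h exposure, viability read by CellTiter-Glo luminescence on day 5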
Description: Antiproliferative activity against human A431 cells expressing wild type EGFR incubated for 96 hrs measured on day 5 by CellTiterGlo assay

[4] = molecular target: Epidermal growth factor receptor (Homo sapiens, UniProt P00533, L858R)
HCC827 = test: cells; format: functional, cell-based; conditions: Homo sapiens;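 also: antiproliferative effect on HCC827 cells carrying EGFR delE746_A750 mutation, 96 h exposure, viability read by CellTiter-Glo luminescence on day 5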
Description: Antiproliferative activity against human HCC827 cells harboring EGFR-delE746_A750 mutant incubated for 96 hrs measured on day 5 by CellTiterGlo assay

A549 [5] = test: cells; format: ADME, cell-based; conditions: Homo sapiens
Description: Antiproliferative activity against human A549 cells harboring KRAS-G12S mutant incubated for 96 hrs measured on day 5 by CellTiterGlo assay

Epidermal growth factor receptor (Homo sapiens, UniProt P00533, L858R/T790M), sequence (P00533 25-1210 T790M/L858R limits assumed): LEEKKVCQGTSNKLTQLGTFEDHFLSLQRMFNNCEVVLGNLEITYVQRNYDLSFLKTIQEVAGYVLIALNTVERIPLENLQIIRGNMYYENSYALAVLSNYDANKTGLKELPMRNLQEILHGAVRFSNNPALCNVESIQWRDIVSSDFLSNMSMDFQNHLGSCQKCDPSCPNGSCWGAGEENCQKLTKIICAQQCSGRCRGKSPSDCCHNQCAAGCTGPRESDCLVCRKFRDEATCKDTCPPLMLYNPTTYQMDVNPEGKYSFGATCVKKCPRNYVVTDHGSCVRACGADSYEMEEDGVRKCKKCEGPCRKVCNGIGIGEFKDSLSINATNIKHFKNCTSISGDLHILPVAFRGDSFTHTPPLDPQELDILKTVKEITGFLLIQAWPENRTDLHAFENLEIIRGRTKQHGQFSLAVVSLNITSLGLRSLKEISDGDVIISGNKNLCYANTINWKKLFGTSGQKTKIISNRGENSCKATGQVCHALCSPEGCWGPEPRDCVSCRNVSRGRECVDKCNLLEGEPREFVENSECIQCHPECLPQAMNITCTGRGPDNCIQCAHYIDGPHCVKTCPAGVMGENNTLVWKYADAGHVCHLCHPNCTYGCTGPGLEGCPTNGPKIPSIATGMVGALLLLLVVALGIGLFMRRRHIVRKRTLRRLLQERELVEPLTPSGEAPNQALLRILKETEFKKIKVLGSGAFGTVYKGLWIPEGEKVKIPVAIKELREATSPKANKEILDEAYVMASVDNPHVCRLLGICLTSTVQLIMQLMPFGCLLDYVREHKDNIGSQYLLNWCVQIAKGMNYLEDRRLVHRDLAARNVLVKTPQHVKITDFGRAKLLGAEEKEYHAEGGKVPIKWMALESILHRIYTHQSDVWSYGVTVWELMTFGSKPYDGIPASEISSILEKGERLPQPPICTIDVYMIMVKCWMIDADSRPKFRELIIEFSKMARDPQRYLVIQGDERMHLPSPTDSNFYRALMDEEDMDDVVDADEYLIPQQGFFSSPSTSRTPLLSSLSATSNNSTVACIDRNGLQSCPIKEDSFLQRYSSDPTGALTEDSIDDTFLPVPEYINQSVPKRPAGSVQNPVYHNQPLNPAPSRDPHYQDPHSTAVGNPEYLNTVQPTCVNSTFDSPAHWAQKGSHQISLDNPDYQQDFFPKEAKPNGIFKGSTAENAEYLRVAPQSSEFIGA
Epidermal growth factor receptor (Homo sapiens, UniProt P00533), sequence (P00533 whole entry): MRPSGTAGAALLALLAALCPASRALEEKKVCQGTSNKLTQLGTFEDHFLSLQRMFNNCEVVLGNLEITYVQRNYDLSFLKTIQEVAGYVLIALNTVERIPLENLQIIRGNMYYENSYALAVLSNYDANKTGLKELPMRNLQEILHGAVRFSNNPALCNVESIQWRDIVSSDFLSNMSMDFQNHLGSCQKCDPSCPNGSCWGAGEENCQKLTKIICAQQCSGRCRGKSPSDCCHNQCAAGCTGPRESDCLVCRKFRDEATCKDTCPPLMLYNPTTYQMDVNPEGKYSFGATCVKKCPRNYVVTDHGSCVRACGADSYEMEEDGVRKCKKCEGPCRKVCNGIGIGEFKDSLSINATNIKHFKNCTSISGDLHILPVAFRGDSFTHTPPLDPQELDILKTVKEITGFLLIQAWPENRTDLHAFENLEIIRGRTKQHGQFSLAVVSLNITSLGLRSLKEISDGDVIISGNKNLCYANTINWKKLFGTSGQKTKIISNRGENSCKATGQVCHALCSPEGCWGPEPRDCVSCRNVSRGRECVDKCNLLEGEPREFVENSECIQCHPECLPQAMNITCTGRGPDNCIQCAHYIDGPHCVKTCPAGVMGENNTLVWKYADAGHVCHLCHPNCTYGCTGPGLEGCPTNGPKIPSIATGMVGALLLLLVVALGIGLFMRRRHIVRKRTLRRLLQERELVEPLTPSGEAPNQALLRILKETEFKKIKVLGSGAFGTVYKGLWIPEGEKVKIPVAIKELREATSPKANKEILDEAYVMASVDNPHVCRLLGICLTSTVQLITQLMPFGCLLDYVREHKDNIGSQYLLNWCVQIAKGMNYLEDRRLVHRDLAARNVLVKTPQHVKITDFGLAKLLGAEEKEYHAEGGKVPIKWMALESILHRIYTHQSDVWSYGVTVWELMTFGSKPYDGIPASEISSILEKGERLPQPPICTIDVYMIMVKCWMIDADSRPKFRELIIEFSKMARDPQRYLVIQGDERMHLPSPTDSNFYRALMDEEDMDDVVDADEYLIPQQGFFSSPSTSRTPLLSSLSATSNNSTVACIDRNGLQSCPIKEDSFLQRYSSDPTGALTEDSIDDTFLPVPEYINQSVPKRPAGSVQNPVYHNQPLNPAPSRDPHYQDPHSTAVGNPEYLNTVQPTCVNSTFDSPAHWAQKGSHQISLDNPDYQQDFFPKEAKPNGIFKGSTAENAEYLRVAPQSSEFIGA
Epidermal growth factor receptor (Homo sapiens, UniProt P00533, L858R), sequence (P00533 25-1210 L858R limits assumed): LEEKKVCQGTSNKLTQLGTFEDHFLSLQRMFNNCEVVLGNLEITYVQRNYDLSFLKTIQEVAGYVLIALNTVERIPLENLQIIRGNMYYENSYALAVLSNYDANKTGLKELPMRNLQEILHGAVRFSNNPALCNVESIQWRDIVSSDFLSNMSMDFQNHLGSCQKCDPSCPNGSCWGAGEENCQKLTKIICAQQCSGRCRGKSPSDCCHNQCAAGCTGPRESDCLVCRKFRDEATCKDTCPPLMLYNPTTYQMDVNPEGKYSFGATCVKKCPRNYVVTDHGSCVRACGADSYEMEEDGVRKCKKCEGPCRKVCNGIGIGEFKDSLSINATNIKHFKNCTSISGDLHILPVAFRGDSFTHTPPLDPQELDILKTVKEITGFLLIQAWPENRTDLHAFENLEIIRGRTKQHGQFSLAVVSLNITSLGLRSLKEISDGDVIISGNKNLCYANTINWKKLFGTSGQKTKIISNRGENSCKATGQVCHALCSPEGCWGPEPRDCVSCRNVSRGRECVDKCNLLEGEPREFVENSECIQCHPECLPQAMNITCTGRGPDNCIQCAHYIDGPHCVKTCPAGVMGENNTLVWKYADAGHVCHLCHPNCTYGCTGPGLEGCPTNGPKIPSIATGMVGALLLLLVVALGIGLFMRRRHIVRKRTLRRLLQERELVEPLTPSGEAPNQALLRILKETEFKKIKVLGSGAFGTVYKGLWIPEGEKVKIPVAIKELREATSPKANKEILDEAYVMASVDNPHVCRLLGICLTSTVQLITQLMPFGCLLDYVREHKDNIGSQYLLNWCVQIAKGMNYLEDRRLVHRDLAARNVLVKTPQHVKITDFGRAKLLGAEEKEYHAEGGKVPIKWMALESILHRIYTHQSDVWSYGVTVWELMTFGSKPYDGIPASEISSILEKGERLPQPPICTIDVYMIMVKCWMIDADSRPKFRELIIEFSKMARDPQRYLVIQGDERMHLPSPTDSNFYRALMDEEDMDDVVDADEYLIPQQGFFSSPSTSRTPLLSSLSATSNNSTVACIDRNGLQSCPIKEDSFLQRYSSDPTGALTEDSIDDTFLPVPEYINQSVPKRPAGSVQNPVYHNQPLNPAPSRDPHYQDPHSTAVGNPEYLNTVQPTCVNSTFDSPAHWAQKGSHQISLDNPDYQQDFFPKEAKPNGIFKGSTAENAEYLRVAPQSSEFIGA

SMILES | Activity (A549 [1]) | IC50 [2] | EC50 (NCI-H1975) | IC50 [3] | EC50 (A-431) | IC50 [4] | EC50 (HCC827) | EC50 (A549 [5])
C=CC(=O)N1CCC[C@@H](n2nc(-c3cccc(F)c3)c3c(N)ncnc32)C1 | Non-Toxic | 230 nM | 3370 nM | 130 nM | 11700 nM | 10 nM | 70 nM | –
C=CC(=O)N1CCC[C@@H](n2nc(-c3ccc(F)cc3)c3c(N)ncnc32)C1 | – | 280 nM | – | 130 nM | – | 30 nM | – | –
C=CC(=O)N1CCC[C@@H](n2nc(Cc3ccccc3)c3c(N)ncnc32)C1 | Non-Toxic | 10 nM | 690 nM | 20 nM | 19900 nM | 3 nM | 150 nM | –
C=CC(=O)N1CCC[C@@H](n2nc(-c3ccc(O)cc3)c3c(N)ncnc32)C1 | – | – | 1840 nM | – | 4170 nM | – | 70 nM | 20000 nM
CN(C)C/C=C/C(=O)Nc1cc2c(Nc3ccc(F)c(Cl)c3)ncnc2cc1O[C@H]1CCOC1 [AFATINIB] | – | – | 600 nM | – | 200 nM | – | < 14 nM | 1490 nM
CN(C)C/C=C/C(=O)N1CCC[C@@H](n2nc(-c3ccccc3)c3c(N)ncnc32)C1 | Non-Toxic | 6600 nM | 29900 nM | 3000 nM | 29800 nM | 220 nM | 1190 nM | –
C=CC(=O)N1CCC[C@@H](n2nc(C3CC3)c3c(N)ncnc32)C1 | Non-Toxic | 220 nM | 5830 nM | 700 nM | 28100 nM | 110 nM | 310 nM | –
C=CC(=O)N1CCC[C@@H](n2nc(C#CCC3CCCC3)c3c(N)ncnc32)C1 | – | 920 nM | 6930 nM | 750 nM | 8770 nM | 120 nM | 3150 nM | 19900 nM
C=CC(=O)N1CCC[C@@H](n2nc(C#CC3CCCC3)c3c(N)ncnc32)C1 | – | 1400 nM | 8270 nM | 750 nM | 10900 nM | 60 nM | 1150 nM | 27100 nM
C#Cc1nn([C@@H]2CCCN(C(=O)C=C)C2)c2ncnc(N)c12 | – | 690 nM | 16200 nM | 1500 nM | 29600 nM | 960 nM | 2050 nM | 28300 nM
CN(C)C/C=C/C(=O)N1CCC[C@@H](n2nc(-c3cccc(C(F)(F)F)c3)c3c(N)ncnc32)C1 | Non-Toxic | 6100 nM | 20600 nM | 7300 nM | 13700 nM | 1000 nM | 6390 nM | –
C=CC(=O)Nc1cccc(Oc2nc(Nc3ccc(N4CCN(C)CC4)cc3OC)ncc2Cl)c1 | – | – | 90 nM | – | – | – | 20 nM | 3990 nM
C=CC(=O)N1CCC[C@@H](n2nc(-c3ccc(N(C)C)c4ccccc34)c3c(N)ncnc32)C1 | Non-Toxic | 210 nM | 2670 nM | 810 nM | 24500 nM | 270 nM | 2130 nM | –
C=CC(=O)N1CCC[C@@H](n2nc(-c3ccc(F)c4ccccc34)c3c(N)ncnc32)C1 | Non-Toxic | – | 360 nM | – | 12800 nM | – | 430 nM | –
C=CC(=O)N1CCC[C@@H](n2nc(-c3ccc(C(F)(F)F)cc3)c3c(N)ncnc32)C1 | Non-Toxic | 270 nM | 1380 nM | 60 nM | 8870 nM | 60 nM | 160 nM | –
